{"source": "patent US8691726B2", "about": "“Synergistic combination of a glyphosate compound and ZPT” (Dow Global Technologies LLC, priority 2010, dated 2014)", "key": {"[1]": {"system": "diatom (Navicula pelliculosa)", "conditions": "7 day; cited from earlier work"}, "[2]": {"system": "Cladosporium herbarum was mixed with Trichoderma viride", "assay": "Fungal efficacy on dry paint film (Modified ASTM 5590), pool TV + Ch", "format": "cell-based", "conditions": "four weeks", "description": "(§1) Each sample was tested in duplicate.\n(§2) Fungal efficacy was tested as follows (Modified ASTM 5590)."}, "[3]": {"system": "blue-green algae (Anabaena flos-aquae)", "conditions": "7 day; cited from earlier work"}, "[4]": {"system": "Alternaria alternata was mixed with Aureobasidium pullulans", "assay": "Fungal efficacy on dry paint film (Modified ASTM 5590), pool Aa + Ap", "format": "cell-based", "conditions": "672 h, four weeks", "description": "as §1, §2"}, "[5]": {"system": "Trentepohlia aurea, Tretepohlia odorata, and Calotrix parientina", "assay": "Algal efficacy on dry paint film (Modified ASTM 5589), pool Cp + To + Ta", "format": "cell-based", "conditions": "for % Inhibition Cp + To + Ta: four weeks; for % Inhibition, Cal-Tre: at the total conc printed for the same blend", "description": "(§3) A single biocide or blend of biocides was post added into white acrylic latex paint free of biocides to give a maximum total active ingredient/s concentration tested. This paint was then diluted with a biocide free acrylic latex paint to give targeted concentrations for the testing. Depending on the type of biocide blends tested, the total biocides concentrations varies from 400 to 3300 ppm. After biocides addition or dilution, each sample was hand mixed for at least a minute until uniformity was achieved. Each of the paint samples as well as a control sample (containing no biocide) were used to prepare films on black plastic-vinyl chloride/acetate copolymer panels (Leneta Company, Mahwah, N.J.) using a 0.0762 mm (3 mil) bird bar applicator. The panels were thoroughly dried for at least 2 days avoiding direct exposure to sunlight. Square discs (0.5 inch^2; 1.27 cm^2) were cut out from each panel and were used as the substrate for fungal and algal efficacy tests. This sample size allowed for an agar border when the sample disc was placed into the well of the test plate. Each sample was tested in duplicate.\n(§4) The appropriate media (BOLD'S 3N for Chlorophytes, BG-11 for Cyanobacteria, and PDA for fungi) were used to support microbial growth. The test plates were maintained at room temp (25° C.-26° C.), in a cycled light-dark environment, for four weeks for algae. Plates for fungal challenge tests were maintained at 30° C. for four weeks. At the end of the incubation period the samples were scored for percent area covered by visible microbial growth.\n(§5) Algal efficacy was tested as follows (Modified ASTM 5589).\n(§6) ASTM 5589 is a standard accelerated test method for determining resistance of various coatings (including paints) to algal defacement. To accommodate for high-throughput screening, this method was scaled down from petri plates to 6-well plates. A single coupon was placed with a pair of sterile forceps at the center of the agar plug (on top) with the painted surface facing upwards. Algal inoculums were prepared by mixing equal concentrations (approximately 1×10^6 cfu/ml) and equal volumes (depending on number of samples to be inoculated) of like growing organisms.\n(§7) In this synergy study, three pool of mixed algae were prepared as the test inoculum, Gloeocapsa sp. and Oscillatoria sp. a mix of cyanobacteria grown on BG-11 media; Chlorella sp., Chlorella kessleri, and Nostoc commune are unicellular chlorphytes that were mixed and grown on Bold media; Trentepohlia aurea, Tretepohlia odorata, and Calotrix parientina are filamentous algae that were mixed and grown on Bold media.\n(§8) Each well that contained a tested coupon was inoculated with 400 μl of organism mixture (approximately 1×10^6 cfu/ml) making sure that the whole surface (paint film as well as the agar surrounding it) was evenly covered. The plates were incubated at room temp (25° C.-26° C.) with cyclic exposure to light (OTT-Lite model # OTL4012P, 40 Watt, 26 KLumen) and dark phases, for a period of four weeks. The total area covered was evaluated at the end of each week according to percent area covered in 5% increments.\n(§9) The SI is calculated based on F. C. Kull et.\n(§10) SI value of <1 in the formula indicates a synergism of the blended biocides exists.\n(§11) NE=no end point at the concentration tested that will meet the percent inhibition criteria set in each SI calculation."}, "[6]": {"system": "Chlorella sp., Chlorella kessleri, and Nostoc commune", "assay": "Algal efficacy on dry paint film (Modified ASTM 5589), pool Cs + Ck + Nc", "format": "cell-based", "description": "as §3, §4, §5, §6, §7, §8, §9, §10, §11"}, "[7]": {"system": "green algae (Selenastrum capricornutum)", "conditions": "cited from earlier work; for EbC50: biomass"}, "various algae": {"system": "various algae", "conditions": "cited from earlier work"}, "[8]": {"conditions": "cited from earlier work"}, "[9]": {"system": "marine algae (Skeletonema costatum)", "conditions": "cited from earlier work"}, "[10]": {"system": "Gloeocapsa sp. and Oscillatoria sp.", "assay": "Algal efficacy on dry paint film (Modified ASTM 5589), pool Gs + Os", "format": "cell-based", "conditions": "for % Inhibition Gs + Os: four weeks; for % Inhibition, Os-Gl: at the total conc printed for the same blend", "description": "as §3, §4, §5, §6, §7, §8, §9, §10, §11"}, "[11]": {"system": "Aspergillus niger was mixed with Penicillium funiculosum", "assay": "Fungal efficacy on dry paint film (Modified ASTM 5590), pool An + Pf", "format": "cell-based", "conditions": "for % Inhibition An + Pf: four weeks; for % Inhibition, An-Pf: at the total conc printed for the same blend", "description": "as §3, §4, §2\nASTM 5590 is a standard accelerated test method for determining resistance of various coatings (including paints) to fungal defacement. To accommodate for high-throughput screening, this method was scaled down from petri plates to 6-well plates. To set up the test, an agar plug was placed at the bottom of each well of the sterile 6-well plate. A single coupon was placed with a pair of sterile forceps at the center of the agar plug (on top) with the painted surface facing upwards. Fungal inoculums were prepared by mixing equal concentrations (approximately 1×10^6 cfu/ml) and equal volumes (depending on number of samples to be tested) of like growing organisms. For this synergy study, three pools of mixed fungi were prepared as the test inoculum. Cladosporium herbarum was mixed with Trichoderma viride, Aspergillus niger was mixed with Penicillium funiculosum and Alternaria alternata was mixed with Aureobasidium pullulans. Each well was inoculated with 400 microliter of organism mixture (approximately 1×10^6 cfu/ml) making sure that the whole surface (paint film as well as the agar surrounding it) was evenly covered. The plates were incubated at 30° C. in presence of moisture, for a period of four weeks. The total percent area covered was evaluated and recorded at the end of each week and recorded in increments of 5%.\nas §9, §10, §11"}, "[12]": {"conditions": "Trentepohlia aurea, 672 h, read-out: % Inhibition Cp + To + Ta"}, "[13]": {"conditions": "Nostoc commune, 672 h, read-out: % Inhibition Cs + Ck + Nc"}, "[14]": {"conditions": "672 h, read-out: % Inhibition Gs + Os"}, "[15]": {"conditions": "672 h, read-out: % Inhibition An + Pf"}}, "note": "Read-outs that look alike come from different tables or passages of the source."}
{"molecule": "O=C(O)CNCP(=O)(O)O", "note": "[glyphosate, N-(phosphonomethyl)glycine]", "values": [{"measurement": "EC50", "setting": "[1]", "value": 42, "unit": "µg/mL"}, {"measurement": "inhibition at 750 ppm", "setting": "[2]; 672 h, 750 ppm in paint", "value": 2.5, "unit": "%"}, {"measurement": "inhibition at 1500 ppm", "setting": "[2]; 672 h, 1500 ppm in paint", "value": 50, "unit": "%"}, {"measurement": "inhibition at 2500 ppm", "setting": "[2]; 672 h, 2500 ppm in paint", "value": 72.5, "unit": "%"}, {"measurement": "EC50", "setting": "[3]", "value": 15, "unit": "µg/mL"}, {"measurement": "inhibition at 750 ppm", "setting": "[4]; 750 ppm in paint", "value": 7.5, "unit": "%"}, {"measurement": "inhibition at 1500 ppm", "setting": "[4]; 1500 ppm in paint", "value": 20, "unit": "%"}, {"measurement": "inhibition at 2500 ppm", "setting": "[4]; 2500 ppm in paint", "value": 67.5, "unit": "%"}, {"measurement": "inhibition at 750 ppm", "setting": "[5]; [12]", "value": 0, "unit": "%"}, {"measurement": "inhibition at 1500 ppm", "setting": "[5]; [12]", "value": 10, "unit": "%"}, {"measurement": "inhibition at 2500 ppm", "setting": "[5]; [12]", "value": 7.5, "unit": "%"}, {"measurement": "inhibition at 750 ppm", "setting": "[6]; [13]", "value": 37.5, "unit": "%"}, {"measurement": "inhibition at 1500 ppm", "setting": "[6]; [13]", "value": 60, "unit": "%"}, {"measurement": "inhibition at 2500 ppm", "setting": "[6]; [13]", "value": 80, "unit": "%"}, {"measurement": "EbC50", "setting": "[7]; 72 hr", "value": 485, "unit": "mg/L"}, {"measurement": "ErC50", "setting": "[7]; 72 hr, growth rate", "value": 460, "unit": "mg/L"}, {"measurement": "EbC50", "setting": "[7]; 7 day", "value": 13.8, "unit": "mg/L"}, {"measurement": "activity against various algae", "setting": "various algae", "value": "relatively low"}, {"measurement": "solubility in water", "setting": "[8]", "value": "relatively high"}, {"measurement": "EC50", "setting": "[9]; 96 hr", "value": 1.3, "unit": "µg/mL"}, {"measurement": "EC50", "setting": "[9]; 7 day", "value": 0.64, "unit": "µg/mL"}, {"measurement": "inhibition at 750 ppm", "setting": "[10]; [14]", "value": 15, "unit": "%"}, {"measurement": "inhibition at 1500 ppm", "setting": "[10]; [14]", "value": 72.5, "unit": "%"}, {"measurement": "inhibition at 2500 ppm", "setting": "[10]; [14]", "value": 90, "unit": "%"}, {"measurement": "inhibition at 750 ppm", "setting": "[11]; [15]", "value": 0, "unit": "%"}, {"measurement": "inhibition at 1500 ppm", "setting": "[11]; [15]", "value": 5, "unit": "%"}, {"measurement": "inhibition at 2500 ppm", "setting": "[11]; [15]", "value": 10, "unit": "%"}]}
{"molecule": "zinc glyphosate", "values": [{"measurement": "% Inhibition TV + Ch", "setting": "[2]; 750 ppm in paint", "value": 50, "unit": "%"}, {"measurement": "% Inhibition TV + Ch", "setting": "[2]; 1500 ppm in paint", "value": 75, "unit": "%"}, {"measurement": "% Inhibition TV + Ch", "setting": "[2]; 2500 ppm in paint", "value": 90, "unit": "%"}, {"measurement": "% Inhibition Cp + To + Ta", "setting": "[5]; 750 ppm in paint", "value": 0, "unit": "%"}, {"measurement": "% Inhibition Cp + To + Ta", "setting": "[5]; 1500 ppm in paint", "value": 0, "unit": "%"}, {"measurement": "% Inhibition Cp + To + Ta", "setting": "[5]; 2500 ppm in paint", "value": 0, "unit": "%"}, {"measurement": "% Inhibition, Cal-Tre", "setting": "[5]; Cal-Tre", "value": 100, "unit": "%"}, {"measurement": "% Inhibition Gs + Os", "setting": "[10]; 750 ppm in paint", "value": 15, "unit": "%"}, {"measurement": "% Inhibition Gs + Os", "setting": "[10]; 1500 ppm in paint", "value": 72.5, "unit": "%"}, {"measurement": "% Inhibition Gs + Os", "setting": "[10]; 2500 ppm in paint", "value": 90, "unit": "%"}, {"measurement": "% Inhibition, Os-Gl", "setting": "[10]; Os-Gl", "value": 100, "unit": "%"}, {"measurement": "% Inhibition An + Pf", "setting": "[11]; 750 ppm in paint", "value": 20, "unit": "%"}, {"measurement": "% Inhibition An + Pf", "setting": "[11]; 1500 ppm in paint", "value": 27.5, "unit": "%"}, {"measurement": "% Inhibition An + Pf", "setting": "[11]; 2500 ppm in paint", "value": 30, "unit": "%"}, {"measurement": "% Inhibition, An-Pf", "setting": "[11]; An-Pf", "value": 100, "unit": "%"}]}
{"molecule": "zinc pyrithione [ZPT]", "values": [{"measurement": "% Inhibition, Cal-Tre", "setting": "[5]; Cal-Tre", "value": 40, "unit": "%"}, {"measurement": "Total conc (minimum inhibitory concentration chosen for SI), Cal-Tre", "setting": "[5]; total active in paint, Cal-Tre", "value": 3300, "unit": "pppm"}, {"measurement": "% Inhibition, Ch-No", "setting": "[6]; at the total conc printed for the same blend, Ch-No", "value": 80, "unit": "%"}, {"measurement": "Total conc (minimum inhibitory concentration chosen for SI), Ch-No", "setting": "[6]; total active in paint, Ch-No", "value": 412.5, "unit": "pppm"}, {"measurement": "% Inhibition, Os-Gl", "setting": "[10]; Os-Gl", "value": 100, "unit": "%"}, {"measurement": "Total conc (minimum inhibitory concentration chosen for SI), Os-Gl", "setting": "[10]; total active in paint, Os-Gl", "value": 3300, "unit": "pppm"}, {"measurement": "% Inhibition, An-Pf", "setting": "[11]; An-Pf", "value": 0, "unit": "%"}, {"measurement": "Total conc (minimum inhibitory concentration chosen for SI), An-Pf", "setting": "[11]; total active in paint, An-Pf", "value": 3300, "unit": "pppm"}]}
